Test results taken from patent US12581252B2, “Substituted pyrrolo[3,4-b]pyridines as PI3K-α inhibitors” (Relay Therapeutics, Inc., priority 2020, dated 2026).
pIC50: −log10 of the molar value.

Target: H1047R PIK3CA enzyme (Homo sapiens, UniProt P42336, H1047R)
Experiment: ADP-Glo Biochemical PIK3CA Kinase Assay

H1047R PIK3CA enzyme, sequence (P42336 whole entry H1047R): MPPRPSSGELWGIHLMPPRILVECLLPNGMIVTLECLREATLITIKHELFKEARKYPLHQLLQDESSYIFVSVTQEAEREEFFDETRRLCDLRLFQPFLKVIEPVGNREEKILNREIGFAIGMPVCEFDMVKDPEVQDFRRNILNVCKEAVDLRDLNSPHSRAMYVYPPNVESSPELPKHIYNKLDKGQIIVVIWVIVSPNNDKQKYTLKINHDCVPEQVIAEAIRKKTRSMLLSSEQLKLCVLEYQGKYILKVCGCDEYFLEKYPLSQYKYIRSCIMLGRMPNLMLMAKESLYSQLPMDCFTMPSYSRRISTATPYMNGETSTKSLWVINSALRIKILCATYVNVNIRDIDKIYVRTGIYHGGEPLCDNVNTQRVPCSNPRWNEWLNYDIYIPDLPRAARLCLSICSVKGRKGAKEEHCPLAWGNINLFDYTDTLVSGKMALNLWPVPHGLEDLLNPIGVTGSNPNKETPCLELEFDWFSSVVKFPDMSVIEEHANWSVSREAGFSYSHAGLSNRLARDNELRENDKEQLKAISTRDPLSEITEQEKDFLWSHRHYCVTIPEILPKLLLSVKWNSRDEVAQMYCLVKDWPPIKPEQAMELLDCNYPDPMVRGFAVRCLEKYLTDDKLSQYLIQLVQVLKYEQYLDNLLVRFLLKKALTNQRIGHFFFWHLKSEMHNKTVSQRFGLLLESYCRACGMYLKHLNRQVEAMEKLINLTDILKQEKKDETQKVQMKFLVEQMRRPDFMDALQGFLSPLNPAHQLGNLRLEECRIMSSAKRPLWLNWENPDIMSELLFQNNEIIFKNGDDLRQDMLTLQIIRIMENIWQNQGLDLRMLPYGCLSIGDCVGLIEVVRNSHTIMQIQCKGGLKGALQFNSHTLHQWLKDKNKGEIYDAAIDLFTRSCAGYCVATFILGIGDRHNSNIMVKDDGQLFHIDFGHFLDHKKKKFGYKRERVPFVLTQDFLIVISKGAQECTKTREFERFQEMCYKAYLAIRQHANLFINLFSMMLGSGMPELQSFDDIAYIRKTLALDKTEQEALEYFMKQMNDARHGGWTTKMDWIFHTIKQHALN
H1047R PIK3CA enzyme, sequence (P27986 whole entry partner): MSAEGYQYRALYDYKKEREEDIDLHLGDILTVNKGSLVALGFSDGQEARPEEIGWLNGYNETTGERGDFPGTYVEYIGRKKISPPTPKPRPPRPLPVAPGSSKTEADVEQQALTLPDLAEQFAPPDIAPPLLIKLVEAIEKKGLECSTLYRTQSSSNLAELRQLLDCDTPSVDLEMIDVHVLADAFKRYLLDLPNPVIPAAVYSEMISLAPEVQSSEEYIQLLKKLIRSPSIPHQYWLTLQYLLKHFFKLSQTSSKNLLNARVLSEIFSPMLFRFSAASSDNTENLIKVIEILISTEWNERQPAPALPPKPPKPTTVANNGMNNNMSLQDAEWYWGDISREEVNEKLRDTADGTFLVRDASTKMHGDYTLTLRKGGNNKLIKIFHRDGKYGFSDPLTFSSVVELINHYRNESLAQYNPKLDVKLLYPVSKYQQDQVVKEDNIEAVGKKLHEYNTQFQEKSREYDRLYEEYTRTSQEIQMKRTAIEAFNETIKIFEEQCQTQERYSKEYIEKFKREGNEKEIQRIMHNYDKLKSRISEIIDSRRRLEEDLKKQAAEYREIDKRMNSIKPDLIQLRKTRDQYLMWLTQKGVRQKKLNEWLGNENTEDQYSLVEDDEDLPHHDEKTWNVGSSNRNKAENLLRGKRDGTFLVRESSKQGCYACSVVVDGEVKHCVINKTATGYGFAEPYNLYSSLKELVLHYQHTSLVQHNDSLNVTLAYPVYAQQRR

| pIC50 | SMILES |
| --- | --- |
| 6.30 to 7.00 | O=C(Nc1cc(O[C@H]2CCCNC2)cc2c1C(c1cc(F)ccc1Cl)NC2=O)c1cc(F)cc(C(F)(F)F)c1 (mixture of isomers) [Compound I-1527] |
| 6.30 to 7.00 | Cc1c(-c2cc(NC(=O)c3cc(F)cc(Cl)c3)c3c(n2)C(=O)NC3c2cc(F)ccc2Cl)cnn1C (stereo not drawn) [Compound I-381] |
| ≥ 7.00 | O=C1NC(c2cc(F)ccc2Cl)c2c(N/C(=N\O)c3cc(F)cc(C(F)(F)F)c3)cccc21 (stereo not drawn) [Compound I-1100] |
| 4.00 to 5.00 | O=C(Nc1cccc2c1C(C13CC4CC(CC(C4)C1)C3)NC2=O)c1cc(F)cc(C(F)(F)F)c1 (stereo not drawn) [Compound I-1969] |
| ≥ 7.00 | O=C(Nc1cc(Br)cc2c1[C@H](c1cc(Cl)ccc1Cl)NC2=O)c1cc(F)cc(C(F)(F)F)c1 [Compound I-765] |
| 5.00 to 6.00 | N#Cc1cc(NC(=O)N2C[C@](O)(C(F)(F)F)c3cc(F)ccc32)c2c(c1)C(=O)N[C@H]2c1cc(F)ccc1Cl (single isomer, unassigned) [Compound I-2561] |
| ≥ 7.00 | C[C@H](c1cc(NC(=O)c2cc(F)cc(C(F)(F)F)c2)c2c(c1)C(=O)N[C@H]2c1cc(F)ccc1Cl)S(C)(=O)=O (single isomer, unassigned) [Compound I-1642] |
| 4.00 to 5.00 | O=C1N[C@@H](c2cc(F)ccc2Cl)c2c(NC(=O)[C@H]3CCC[C@@H](OC(F)(F)F)C3)cccc21 (single isomer, unassigned) [Compound I-2218] |
| 6.00 to 6.30 | O=C1N[C@H](c2cc(F)ccc2Cl)c2c(NC(=O)N3C[C@@H](O)c4ccccc43)cc(-c3ccc4ncnn4c3)cc21 (single isomer, unassigned) [Compound I-1579] |
| ≥ 7.00 | O=C(Nc1cc(CC2(O)CC2)cc2c1C(c1cc(F)ccc1Cl)NC2=O)c1cc(F)cc(C(F)(F)F)c1 (stereo not drawn) [Compound I-644] |
| 6.30 to 7.00 | CNS(=O)(=O)Cc1cc(NC(=O)c2cc(F)cc(C(F)(F)F)c2)c2c(c1)C(=O)N[C@@H]2c1cc(F)ccc1Cl [Compound I-1533] |
| 4.00 to 5.00 | C[C@H](CCC(F)(F)F)C(=O)Nc1cccc2c1[C@H](c1cc(F)ccc1Cl)NC2=O [Compound I-2139] |
| 4.00 to 5.00 | Cc1cc(=O)[nH]cc1C(=O)Nc1cc(Br)cc2c1[C@H](c1cc(F)ccc1Cl)NC2=O [Compound I-2108] |
| 5.00 to 6.00 | O=C(Nc1cc(Br)cc2c1C(c1cc(F)ccc1Cl)NC2=O)c1cccc(SC(F)F)c1 (stereo not drawn) [Compound I-1386] |
| ≥ 7.00 | N#Cc1cnn2ccc(-c3cc(NC(=O)c4cc(F)cc(C(F)(F)F)c4)c4c(c3)C(=O)N[C@H]4c3cc(F)ccc3Cl)cc12 [Compound I-1799] |
| ≥ 7.00 | N#CC1CC(Oc2cc(NC(=O)c3cc(F)cc(C(F)(F)F)c3)c3c(c2)C(=O)NC3c2cc(F)ccc2Cl)C1 (stereo not drawn) [Compound I-1129] |
| 6.00 to 6.30 | Cn1cc(-c2cc(NC(=O)c3cc(F)cc(C(F)(F)F)c3)c3c(c2)C(=O)N[C@@H]3c2cc(F)ccc2Cl)ccc1=O (single isomer, unassigned) [Compound I-701] |
| ≥ 7.00 | O=C(Nc1cc(-c2cnc(C3CC3)nc2)cc2c1C(c1cc(F)ccc1Cl)NC2=O)c1cc(F)cc(C(F)(F)F)c1 (stereo not drawn) [Compound I-822] |
| 4.00 to 5.00 | O=C1NC(c2cc(F)ccc2Cl)c2c(NC(=O)C3CCC(O)(C(F)(F)F)CC3)cccc21 (stereo not drawn) [Compound I-2155] |
| ≥ 7.00 | Nc1ccc(COc2cc(NC(=O)c3cc(F)cc(C(F)(F)F)c3)c3c(c2)C(=O)NC3c2cc(F)ccc2Cl)cn1 (stereo not drawn) [Compound I-1736] |
| 5.00 to 6.00 | Cn1nc(C(F)F)cc1-c1cc(NC(=O)c2cc(F)cc(C(F)(F)F)c2)c2c(c1)C(=O)N[C@@H]2c1cc(F)ccc1Cl [Compound I-1879] |
| 4.00 to 5.00 | O=C1NC(c2cc(F)ccc2Cl)c2c(NC(=O)N3CC4C5CCC(C5)C43)cccc21 (stereo not drawn) [Compound I-2429] |
| ≥ 7.00 | Nc1nc2cc(-c3cc(NC(=O)c4cc(F)cc(C(F)(F)F)c4)c4c(c3)C(=O)NC4c3cc(F)ccc3Cl)ccc2o1 (stereo not drawn) [Compound I-1531] |
| ≥ 7.00 | O=C(Nc1cc(NC(=O)C2CCOCC2)cc2c1C(c1cc(F)ccc1Cl)NC2=O)c1cc(F)cc(C(F)(F)F)c1 (stereo not drawn) [Compound I-347] |
